Test results: US10865191B2, “Heterocyclic compounds useful as modulators of TNF alpha” (BRISTOL-MYERS SQUIBB COMPANY, priority 2015, dated 2020)

Molecular target: TNFα (Homo sapiens, UniProt P01375)
Assay: TNF induced HEK-Blue assay (NF-kB-driven secreted alkaline phosphatase reporter)
Type: cell-based
Conditions: TNF induced HEK-Blue assay IC50 value, TNFα 0.5 ng/mL, HEK-Blue-CD40L cells, 18 h
Procedure, shortened: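 HEK-Blue-CD40L cells (NF-kB-driven SEAP reporter), 20,000/well, added after 30 min pre-incubation of compound (0.004–25 μM final) with TNFα 0.5 ng/mL final at 37 °C; 18 h incubation. SEAP read with QUANTI-Blue at 620 nm; IC50 from 4-parameter logistic fit, normalized to unstimulated and stimulated DMSO controls.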

TNFα, sequence (P01375 77-233 limits assumed): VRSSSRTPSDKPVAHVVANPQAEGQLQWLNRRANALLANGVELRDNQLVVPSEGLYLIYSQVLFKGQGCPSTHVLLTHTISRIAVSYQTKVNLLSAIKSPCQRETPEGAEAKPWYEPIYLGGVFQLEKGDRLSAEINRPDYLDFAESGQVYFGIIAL

IC50	Compound
1000 to 10000 nM	CC(=O)N1CCC[C@@H](C(C)Nc2c(Cl)cnc3ccc(-c4cnc(C(C)(C)O)nc4)cc23)C1 (single isomer, unassigned) [Example 108]
10000 to 25000 nM	C[C@H](Nc1c(Cl)cnc2cnc(-c3cnc(C(C)(C)O)nc3)cc12)c1ccccc1F (single isomer, unassigned) [Example 234]
< 1000 nM	CC(Nc1c(Cl)cnc2cc(F)c(-c3cnc(C(C)(C)O)nc3)cc12)c1ccccc1F (single isomer, unassigned) [Example 241, 2-(5-(3-chloro-7-fluoro-4-((1-(2-fluorophenyl)ethyl)amino)quinolin-6-yl)pyrimidin-2-yl)propan-2-ol]

Same assay, conditions: TNFα 0.5 ng/mL, HEK-Blue-CD40L cells, 18 h; read-out: TNF induced HEK-Blue assay IC50 value

Compound	IC50
Cc1nc2ccc(-c3cnc(N4CCN(CC(=O)O)CC4)nc3)cc2c(NC(C)c2ccccc2F)c1Cl (racemic) [Example 309, 2-(4-(5-(3-chloro-4-((1-(2-fluorophenyl)ethyl)amino)-2-methylquinolin-6-yl)pyrimidin-2-yl)piperazin-1-yl)acetic acid]	< 1000 nM
Cc1nc2ccc(-c3cnc(N4CCS(=O)(=O)CC4)nc3)cc2c(NC(C)c2ccccc2F)c1Cl (racemic) [Example 310, 4-(5-(3-chloro-4-((1-(2-fluorophenyl)ethyl)amino)-2-methylquinolin-6-yl)pyrimidin-2-yl)thiomorpholine 1,1-dioxide]	< 1000 nM
Cc1nc2ccc(-c3cnc(N4CCOCC4)nc3)cc2c(NC(C)c2ccccc2F)c1Cl (racemic) [Example 311, 3-chloro-N-(1-(2-fluorophenyl)ethyl)-2-methyl-6-(2-morpholinopyrimidin-5-yl)quinolin-4-amine]	< 1000 nM
CCCC(C)C(=O)c1c(Cl)c(C)nc2ccc(-c3cnc(C(C)(C)O)nc3)cc12 (racemic) [Example 356, ± 1-(3-Chloro-6-(2-(2-hydroxypropan-2-yl)pyrimidin-5-yl)-2-methylquinolin-4-yl)-2-methylpentan-1-one]	10000 to 25000 nM
Cc1nc2ccc(-c3cnc(C(C)(C)O)nc3)cc2c(N[C@@H](c2cc(C(N)CO)ccc2F)C(F)F)c1Cl (mixture of isomers) [Example 434, 2-(5-(4-(((1 S)-1-(5-(1-amino-2-hydroxyethyl)-2-fluorophenyl)-2,2-difluoroethyl)amino)-3-chloro-2-methylquinolin-6-yl)pyrimidin-2-yl)propan-2-ol]	< 1000 nM
CC(Nc1c(Cl)cnc2ccc(-c3cnc(N4CCNC(=O)C4)nc3)cc12)c1nc(C(N)=O)ccc1F (single isomer, unassigned) [Example 25, 6-(1-((3-chloro-6-(2-(3-oxopiperazin-1-yl)pyrimidin-5-yl)quinolin-4-yl)amino)ethyl)-5-fluoropicolinamide]	1000 to 10000 nM
CC(Nc1c(Cl)cnc2ccc(-c3cnc(N4CCNC(=O)C4)nc3)cc12)c1nc(C(N)=O)ccc1F (single isomer, unassigned) [Example 26, 6-(1-((3-chloro-6-(2-(3-oxopiperazin-1-yl)pyrimidin-5-yl)quinolin-4-yl)amino)ethyl)-5-fluoropicolinamide]	< 1000 nM
C[C@@H](Nc1c(Cl)cnc2cnc(-c3cnc(N4CCN(CC(=O)O)CC4)nc3)cc12)c1ccccc1F (single isomer, unassigned) [Example 235]	10000 to 25000 nM
C[C@H](Nc1c(Cl)cnc2cnc(-c3cnc(N4CCN(CC(=O)O)CC4)nc3)cc12)c1ccccc1F (single isomer, unassigned) [Example 236]	10000 to 25000 nM
CC(Nc1c(Cl)cnc2cc(F)c(-c3cnc(N4CCN(CC(=O)O)CC4)nc3)cc12)c1ccccc1F (single isomer, unassigned) [Example 242, 2-(4-(5-(3-chloro-7-fluoro-4-((1-(2-fluorophenyl)ethyl)amino)quinolin-6-yl)pyrimidin-2-yl)piperazin-1-yl)acetic acid]	< 1000 nM
CCOC(=O)C1CCN(c2ncc(-c3cc4c(NC(C)c5ccccc5F)c(Cl)cnc4cc3F)cn2)CC1 (single isomer, unassigned) [Example 243, ethyl-1-(5-(3-chloro-7-fluoro-4-((1-(2-fluorophenyl)ethyl)amino)quinolin-6-yl)pyrimidin-2-yl)piperidine-4-carboxylate]	< 1000 nM
CC(Nc1c(Cl)cnc2cc(F)c(-c3cnc(N4CCC(C(=O)O)CC4)nc3)cc12)c1ccccc1F (single isomer, unassigned) [Example 244, 1-(5-(3-chloro-7-fluoro-4-((1-(2-fluorophenyl)ethyl)amino)quinolin-6-yl)pyrimidin-2-yl)piperidine-4-carboxylic acid]	< 1000 nM
CC(Nc1c(Cl)cnc2cc(F)c(-c3cnc(N4CCC(C(C)(C)O)CC4)nc3)cc12)c1ccccc1F (single isomer, unassigned) [Example 245, 2-(1-(5-(3-chloro-7-fluoro-4-((1-(2-fluorophenyl)ethyl)amino)quinolin-6-yl)pyrimidin-2-yl)piperidin-4-yl)propan-2-ol]	< 1000 nM
Cc1nc2ccc(-c3cnc(C(C)(C)O)nc3)cc2c(C(O)C(C)CC(C)C)c1Cl (single isomer, unassigned) [Example 355, 1-(3-Chloro-6-(2-(2-hydroxypropan-2-yl)pyrimidin-5-yl)-2-methylquinolin-4-yl)-2,4-dimethylpentan-1-ol]	1000 to 10000 nM
CC(Nc1c(Cl)cnc2cc(F)c(-c3cnc(C(C)(C)O)cn3)cc12)c1ccccc1F (single isomer, unassigned) [Example 595, 2-(5-(3-chloro-7-fluoro-4-((1-(2-fluorophenyl)ethyl)amino)quinolin-6-yl)pyrazin-2-yl)propan-2-ol]	< 1000 nM
CC(Nc1c(Cl)cnc2cc(F)c(-c3cnc(C(O)CO)nc3)cc12)c1ccccc1F (single isomer, unassigned) [Example 596, 1-(5-(3-chloro-7-fluoro-4-((1-(2-fluorophenyl)ethyl)amino)quinolin-6-yl)pyrimidin-2-yl)ethane-1,2-diol]	< 1000 nM
CC(Nc1c(Cl)cnc2cc(F)c(-c3cnc(C(O)CO)nc3)cc12)c1ccccc1F (single isomer, unassigned) [Example 597, 1-(5-(3-chloro-7-fluoro-4-((1-(2-fluorophenyl)ethyl)amino)quinolin-6-yl)pyrimidin-2-yl)ethane-1,2-diol]	1000 to 10000 nM
CC(Nc1c(Cl)cnc2cc(F)c(-c3ccc(C4COCCN4)cc3)cc12)c1ccccc1F (single isomer, unassigned) [Example 598, 3-chloro-7-fluoro-N-(1-(2-fluorophenyl)ethyl)-6-(4-(morpholin-3-yl)phenyl)quinolin-4-amine]	1000 to 10000 nM
CNCC(O)c1ccc(-c2cc3c(NC(C)c4ccccc4F)c(Cl)cnc3cc2F)cc1 (single isomer, unassigned) [Example 600, 1-(4-(3-chloro-7-fluoro-4-((1-(2-fluorophenyl)ethyl)amino)quinolin-6-yl)phenyl)-2-(methylamino)ethan-1-ol]	< 1000 nM

Second part, the molecule after the results:

IC50	Compound
< 1000 nM	Cc1nc2ccc(-c3cnc(C(C)(C)O)nc3)cc2c(NC(C)c2cc(F)ccc2F)c1Cl (racemic) [Example 317, 2-(5-(3-chloro-4-((1-(2,5-difluorophenyl)ethyl)amino)-2-methylquinolin-6-yl)pyrimidin-2-yl)propan-2-ol]
< 1000 nM	CC(C)(O)c1ncc(-c2ccc3ncc(Cl)c(NC(c4ccccc4F)C(F)F)c3c2)cn1 (single isomer, unassigned) [Example 55, 2-(5-(3-chloro-4-((2,2-difluoro-1-(2-fluorophenyl)ethyl)amino)quinolin-6-yl)pyrimidin-2-yl)propan-2-ol]
< 1000 nM	CC(C)(O)c1ncc(-c2ccc3ncc(Cl)c(NC(c4ccccc4F)C(F)F)c3c2)cn1 (single isomer, unassigned) [Example 55a]
10000 to 25000 nM	CC(Nc1c(Cl)cnc2ccc(-c3cnc(C(C)(C)O)nc3)cc12)[C@H]1CCCNC1 (single isomer, unassigned) [Example 96]
< 1000 nM	CC(Nc1c(Cl)cnc2ccc(-c3cnc(C(C)(C)O)nc3)cc12)[C@H]1CCCNC1 (single isomer, unassigned) [Example 97]
1000 to 10000 nM	CC(Nc1c(Cl)cnc2ccc(-c3cnc(C(C)(C)O)nc3)cc12)[C@@H]1CCCN(C(N)=O)C1 (single isomer, unassigned) [Example 104]
< 1000 nM	CC(C)(O)c1ncc(-c2ccc3ncc(Cl)c(N[C@H](CCF)c4ccccc4F)c3c2)cn1 (single isomer, unassigned) [Example 238]
1000 to 10000 nM	CCCC(C)C(N)c1c(Cl)c(C)nc2ccc(-c3cnc(C(C)(C)O)nc3)cc12 (single isomer, unassigned) [Example 357, 2-(5-(4-(1-amino-2-methylpentyl)-3-chloro-2-methylquinolin-6-yl)pyrimidin-2-yl)propan-2-ol]
10000 to 25000 nM	CCCC(C)C(N)c1c(Cl)c(C)nc2ccc(-c3cnc(C(C)(C)O)nc3)cc12 (single isomer, unassigned) [Example 358, 2-(5-(4-(1-amino-2-methylpentyl)-3-chloro-2-methylquinolin-6-yl)pyrimidin-2-yl)propan-2-ol]
< 1000 nM	C[C@@H](Nc1c(Cl)cnc2ccc(-c3cnc(C(C)(C)O)nc3)cc12)c1cc(C(O)CO)ccc1F (single isomer, unassigned) [Example 400]
< 1000 nM	C[C@@H](Nc1c(Cl)cnc2ccc(-c3cnc(C(C)(C)O)nc3)cc12)c1cc(C(O)CO)ccc1F (single isomer, unassigned) [Example 401]
< 1000 nM	C[C@@H](Nc1c(Cl)cnc2ccc(-c3cnc(C(C)(C)O)nc3)cc12)c1cc(C2NC(=O)NC2=O)ccc1F (single isomer, unassigned) [Example 422]
< 1000 nM	C[C@@H](Nc1c(Cl)cnc2ccc(-c3cnc(C(C)(C)O)nc3)cc12)c1cc(C2NC(=O)NC2=O)ccc1F (single isomer, unassigned) [Example 423]
